Measurements taken from US10105365B2, “Solid antiviral dosage forms” (AbbVie Inc., priority 2014, dated 2018).

Columns and labels:
[1] = type: physicochemical
Excerpt: Moreover, hot melt extrusion, a method commonly used to prepare amorphous solid dispersions, often involves the use of high temperature to assist the formation of a melt that is composed of all components of the final solid dispersion.
This allows the preparation of smaller solid dosage forms (e.g., tablets) comprising all three drug substances.

[2] = Human pharmacokinetic study, Example 4 Arm III (14-day multiple dose, steady state); type: in vivo; conditions: three Formulation C5-12 tablets daily for 14 days, non-fasting
[3] = Sink Conditions dissolution testing of Formulation C5-12; type: physicochemical; conditions: N = 6
Description: The release profiles of Formulation C5-12 of Example 1 were evaluated in a Sink Conditions dissolution study. The study was conducted in 900 mL of dissolution medium using a standard USP dissolution Apparatus 2 (paddle) operating at 100 RPM at 37±0.5° C. The dissolution medium was a 0.05 M sodium phosphate buffer pH 6.8 with 15 mM cTAB as a surfactant.

[4] = Human pharmacokinetic study, Example 5 Arm II (multiple dose, crossover); type: in vivo; conditions: for AUC: read-out: AUC24, geometric mean; for concentration at 24 h: read-out: C24, geometric mean
Description: (§1) A Phase 1, non-fasting, open-label, two-arm, four-period, randomized, crossover study was conducted to compare and characterize the pharmacokinetics of (i) Triple Tablet when co-administered with Single Tablet, and (ii) Formulation C5-12 as discussed below. Part 1 was a single dose, two-treatment, randomized, four period, two sequence replicated crossover study with 88 subjects. Doses in the four periods were separated by at least 10 days. Part 2 was a multiple-dose, two-treatment, two period, randomized crossover study with 66 subjects. Dosing in each period was 14 days and doses in the two periods were separated by at least 10 days.
(§2) Adult male and female subjects in general good health were selected to participate in the study according to the selection criteria. Subjects meeting the selection criteria were randomly assigned to one of the sequences of Regimens A and B (four sequences for Arm I and two sequences for Arm II) as shown below in Table 5-A.
(§3) Study drug was administered as provided below in Table 5-B.
(§4) Each study regimen was taken orally with approximately 240 mL of water approximately 30 minutes after the start of standardized breakfast. Study regimens were administered orally in the morning on Study Day 1 of each period. Serial blood samples for pharmacokinetic analysis were collected 72 hours after dosing in each period.

[5] = Human pharmacokinetic study, Example 5 Arm I (single dose, replicated crossover); type: in vivo; conditions: single dose, non-fasting; for AUC(0-inf) / Cmax: both sexes, human, in vivo, oral
Description: as §1, §2, §3, §4
Tables 5-C, 5-D, 5-E, and 5-F below report the Arm I pharmacokinetic data for Formulation C5-12 (separately reported for each of Compounds 1, 2, 3, and 4). Table 5-G presents the results of a relative bioavailability and 90% confidence interval analysis of the pharmacokinetic data for Formulation C5-12 relative to the reference regimen. The data presented in Tables 5-C through 5-G are preliminary data and are subject to database lock and final data verification by the statistician.

[6] = Human pharmacokinetic study, Example 4 Arm II (single dose, crossover); type: in vivo; conditions: for AUC(0-inf): read-out: AUC∞, geometric mean; for concentration at 24 h: read-out: C24, geometric mean
Description: Formulation C5-12 and a second formulation were tested in Arm II of the study. Adult male and female subjects (N=30 for combined Arm I and Arm II studies) in general good health were selected to participate in the study according to the selection criteria. Subjects meeting the selection criteria were randomly assigned to one of the Regimen sequences as shown below in Table 4-A.
Study drug was administered as provided below in Table 4-B.
as §4, with “each period. For Regimen A the evening dose of the Single Tablet was taken orally with approximately 240 mL of water approximately 30 minutes after the start of the evening snack. Serial blood” for “each period. Serial blood”
The data presented in Tables 4-C through 4-G are preliminary data and are subject to database lock and final data verification.

[7] = Example 5 Arm II, multiple dose 14 days, non-fasting, Regimen B (reference regimen): two Triple Tablets + one Single Tablet morning, one Single Tablet evening, N = 63
[8] = both sexes, human, blood, oral, 3 film-coated Formulation C5-12 tablets daily, Example 5 Arm II, multiple dose 14 days, non-fasting, Regimen A (C5-12): three film-coated Formulation C5-12 tablets daily, N = 63
[9] = both sexes, human, blood, oral, Example 5 Arm II, multiple dose 14 days, non-fasting, Regimen B (reference regimen): two Triple Tablets + one Single Tablet morning, one Single Tablet evening, N = 63
[10] = Regimen A (C5-12): three film-coated Formulation C5-12 tablets, N = 172
[11] = Regimen B (reference regimen): two Triple Tablets + one Single Tablet morning, one Single Tablet evening, N = 171
[12] = Example 4 Arm II, single dose, non-fasting, Regimen E (C5-12): three Formulation C5-12 tablets in the morning, N = 13
[13] = both sexes, human, blood, oral, 3 Formulation C5-12 tablets, Example 4 Arm II, single dose, non-fasting, Regimen E (C5-12): three Formulation C5-12 tablets in the morning, N = 13
[14] = both sexes, human, blood, oral, Example 4 Arm II, single dose, non-fasting, Regimen A (reference regimen): two Triple Tablets + one Single Tablet morning, one Single Tablet evening, N = 13

CC(C)c1nc(CN(C)C(=O)N[C@H](C(=O)N[C@@H](Cc2ccccc2)C[C@H](O)[C@H](Cc2ccccc2)NC(=O)OCc2cncs2)C(C)C)cs1 [Compound 3, 1,3-thiazol-5-ylmethyl N-[(2S,3S,5S)-3-hydroxy-5-[(2S)-3-methyl-2-{[methyl({[2-(propan-2-yl)-1,3-thiazol-4-yl]methyl})carbamoyl]-amino}butanamido]-1,6-diphenylhexan-2-yl]carbamate, reference compound]
Degradation in hot melt extrusion [1]: well within the acceptable levels | Temperature beyond which degradation can reach unacceptable levels [1]: > 140 °C | Tmax ([2]; human, in vivo, oral, 3 Formulation C5-12 tablets daily, Day 1, N = 14): 5.4 h | concentration at 24 h ([2]; human, in vivo, oral, 3 Formulation C5-12 tablets daily, Day 1, N = 14, read-out: C24, geometric mean): 34.7 ng/mL | Tmax ([2]; human, in vivo, oral, 3 Formulation C5-12 tablets daily, Day 14, N = 14): 4.7 h | AUC ([2]; human, in vivo, oral, 3 Formulation C5-12 tablets daily, Day 14, N = 14, read-out: AUC24, geometric mean): 10700 ng·h/mL | concentration at 24 h ([2]; human, in vivo, oral, 3 Formulation C5-12 tablets daily, Day 14, N = 14, read-out: C24, geometric mean): 40 ng/mL | Cmax ([2]; human, in vivo, oral, 3 Formulation C5-12 tablets daily, Day 14, N = 14, read-out: Cmax, geometric mean): 1430 ng/mL | AUC24, geometric mean ([2]; Day 1, N = 14): 7230 ng·h/mL | Cmax, geometric mean ([2]; Day 1, N = 14): 921 ng/mL | t1/2 ([2]; Day 14, N = 14): 4.0 h | β ([2]; Day 14, N = 14): 0.174 h⁻¹ | % Released ([3]; 1 hour, 900 mL 0.05 M sodium phosphate buffer pH 6.8, 15 mM cTAB, USP Apparatus 2, 100 RPM, 37 °C): 58% | % Released ([3]; 4 hours, pH 6.8 buffer, 15 mM cTAB): 99% | % Released ([3]; 6 hours, pH 6.8 buffer, 15 mM cTAB): 100% | % Released ([3]; 8 hours, pH 6.8 buffer, 15 mM cTAB): 103% | % Released ([3]; 12 hours, pH 6.8 buffer, 15 mM cTAB): 102% | % Released ([3]; 16 hours, pH 6.8 buffer, 15 mM cTAB): 100% | Cmax, arithmetic mean, % CV [4, 7]: (1800,44) ng/mL | Cmax, geometric mean [4, 7]: 1680 ng/mL | half-life [4, 8]: 4.6 h | AUC [4, 8]: 8670 ng·h/mL | concentration at 24 h [4, 8]: 36.2 ng/mL | Cmax ([4]; both sexes, human, blood, oral, 3 film-coated Formulation C5-12 tablets daily, Example 5 Arm II, multiple dose 14 days, non-fasting, Regimen A (C5-12): three film-coated Formulation C5-12 tablets daily, N = 63, read-out: Cmax, geometric mean): 1340 ng/mL | AUC [4, 9]: 9580 ng·h/mL | concentration at 24 h [4, 9]: 35.1 ng/mL | Cmax,ss lower than Cmax,ss for the reference regimen ([4]; both, human, in vivo, 14 days): 21% | Exposures (C24,ss and AUC24,ss) versus the reference regimen ([4]; in vivo): bioequivalent | AUC(0-inf) ([5]; 3 film-coated Formulation C5-12 tablets, Regimen A (C5-12): three film-coated Formulation C5-12 tablets, N = 172, read-out: AUC∞, geometric mean): 8090 ng·h/mL | Cmax ([5]; 3 film-coated Formulation C5-12 tablets, Regimen A (C5-12): three film-coated Formulation C5-12 tablets, N = 172, read-out: Cmax, geometric mean): 1130 ng/mL | AUC(0-inf) ([5]; Regimen B (reference regimen): two Triple Tablets + one Single Tablet morning, one Single Tablet evening, N = 171, read-out: AUC∞, geometric mean): 8750 ng·h/mL | Cmax ([5]; Regimen B (reference regimen): two Triple Tablets + one Single Tablet morning, one Single Tablet evening, N = 171, read-out: Cmax, geometric mean): 1430 ng/mL | AUCt, geometric mean [5, 10]: 7450 ng·h/mL | Tmax, first value (geometric mean) [5, 10]: 4.0 h | t1/2 [5, 10]: 4.52 h | AUCt, geometric mean [5, 11]: 8610 ng·h/mL | t1/2 [5, 11]: 4.47 h | Cmax, geometric mean ([6]; Example 4 Arm II, single dose, non-fasting, Regimen A (reference regimen): two Triple Tablets + one Single Tablet morning, one Single Tablet evening, N = 13): 1170 ng/mL | AUCt, geometric mean [6, 12]: 8160 ng·h/mL | Cmax, geometric mean [6, 12]: 1160 ng/mL | t1/2 [6, 12]: 4.2 h | AUC(0-inf) [6, 13]: 8270 ng·h/mL | concentration at 24 h [6, 13]: 38.8 ng/mL | Tmax ([6]; both sexes, human, blood, oral, 3 Formulation C5-12 tablets, Example 4 Arm II, single dose, non-fasting, Regimen E (C5-12): three Formulation C5-12 tablets in the morning, N = 13, read-out: Tmax): 4.9 h | half-life [6, 14]: 4.9 h | concentration at 24 h [6, 14]: 37 ng/mL | AUC(0-t) ([6]; both sexes, human, in vivo, Example 4 Arm II, single dose, non-fasting, Regimen A (reference regimen): two Triple Tablets + one Single Tablet morning, one Single Tablet evening, N = 13, read-out: AUCt, geometric mean): 7710 ng·h/mL | AUC(0-inf) ([6]; both sexes, human, in vivo, Example 4 Arm II, single dose, non-fasting, Regimen A (reference regimen): two Triple Tablets + one Single Tablet morning, one Single Tablet evening, N = 13): 7900 ng·h/mL | C24, arithmetic mean, % CV ([6]; both, human, in vivo, 24 h): (46.3, 62) ng/mL
